Results reported in US12643882B2, “Inhibitors of human respiratory syncytial virus and metapneumovirus” (priority 2022, dated 2026).
Like-named read-outs stand apart in the source and are kept apart here.

How the values were obtained:
hMPV-GFP virus = test: microbe, parasite or virus in culture; assay type: cell-based, human metapneumovirus
Experimental: GFP expressing rgHMPV #3 p3 was generated in Dr. Buchholz's lab (Biacchesi S. et al., J Virol. 2007 June; 81(11): 6057-6067) and propagated in VERO cells (ATCC Cat #CCL-81) with a Multiplicity of Infection (MOI) of 0.1. Virus was harvested 4 days after infection by collecting cultured material and was freeze-thaw cycled in liquid nitrogen twice. Working virus stocks were generated from thawing frozen samples in 37° C. water bath, which were centrifuged at 218 g for 15 min at 4° C. 1/10 of 10×SPG (Biological Industries 06-3061-01-5A) were added and then mixed. The supernatant was aliquoted, frozen in liquid nitrogen, and then transferred to a −80° C. freezer for storage. Virus titer was determined by performing titration test in 96-well plates and calculate approximate virus titer using GFP event/well data.
Compound plates were prepared by dispensing compounds dissolved in DMSO into wells of a 384 well Corning 3985 polystyrene flat clear bottom optical imaging microplate (202.5 nL/well) using an ECHO acoustic dispenser. Each compound was tested in 10-point serial 3-fold dilution (typical final concentrations: 40,300 nM-2 nM). […] Continuous culture of VERO cells was maintained in complete culture media (OptiMEM supplemented with 2 mM GlutaMAX™ and 100 U/ml Penicillin-Streptomycin). To set up the assay, VERO cells were trypsinized with 0.25% Trypsin-EDTA until cells were dislodged, then cells were re-suspended with 1 mL FBS. Cells were spun down at 300 g for 5 minutes and cells were washed twice with culture media and counted using default parameters on ViCell. Cells were then diluted to 100,000 cells/mL (5,000 cells/50 μL) in complete culture media+TrypLE Select (80 μL/mL). hMPV-GFP virus was added to cells at 125,000 pfu/mL (MOI=1.25) and were mixed by gentle inversion. 10 μL/well of 100% DMSO was dispensed to CellTiter-Glo (CTG) assay Max_E controls wells. Cells were dispensed at 50 μL/well using Bravo and 50 μL filtered tips into compound plates. Plates were covered with MicroClime lids and loaded with 7.5 mL of assay media to minimize evaporation. Plates were lightly shaken for 10 minutes at room temperature and then incubated at 37° C. and 5% CO2 for 48 hrs. Following incubation, distinct GFP-expressing cells were counted using an Acumen imaging system with appropriate settings. A same-well CTG assay was performed by adding 10 μL/well reconstituted CellTiter-Glo reagent (Promega G7573) and plates were read on PerkinElmer Envision according to manufacturer's instructions. Raw data were loaded and analyzed in ActivityBase. Antiviral IC50 and cytotoxicity CC50 values were determined using a 4 parameter logistic fit based on the Levenberg-Marquardt algorithm. Model: 205-4 Parameter Logistic. • References: Wen Z, Citron M, Bett A J, Espeseth A S, Vora K A, Zhang L, DiStefano D J. Development and application of a higher throughput RSV plaque assay by immunofluorescent imaging. J Virol Methods. 2019 January; 263:88-95. doi: 10.1016/j.jviromet.2018.10.022. Epub 2018 Oct. 28. PMD: 30381239. • Biacchesi S, Murphy B R, Collins P L, Buchholz U J. Frequent frameshift and point mutations in the SH gene of human metapneumovirus passaged in vitro. J Virol. 2007 June; 81(11):6057-67. doi: 10.1128/JVL.00128-07. Epub 2007 Mar. 21. PMID: 17376897; PMCID: MC 1900297. Assay Data

RSV-A2-GFP virus = test: microbe, parasite or virus in culture; assay type: cell-based, Human Respiratory Syncytial Virus
Experimental: To set up the assay, ARF vials were thawed in a 37° C. water bath and a control compound was resuspended in assay media DMEM (Dulbecco's Modified Eagle Medium) containing 2% FBS, 100 U/ml Penicillin-Streptomycin.
GFP sequence was derived from pJTI™ R4 Dest CMV N-EmGFP pA Vector (Invitrogen) and was cloned into the intergenic sequence between wild-type RSV-A2 P and M genes using standard recombineering techniques. Recombinant RSV-A2-GFP was propagated in Hep2 cells (human cells contain HeLa marker chromosomes and were derived via HeLa contamination, ATCC CCL-23) with a Multiplicity of Infection (MOI) of 0.1. Virus was harvested 3 days after infection by collecting all culture material and then freeze-thawing the mixture for 5 min. Working virus stocks were generated by thawing frozen viral cultures in 37° C. water bath, which were centrifuged at 218 g for 15 min at 4° C. 1/10 of 10×SPG (Biological Industries 06-3061-01-5A) were added and then mixed. The supernatant was aliquoted, frozen in liquid nitrogen, and then transferred to a −80° C. freezer for storage. Virus titer was determined by automated plaque assay in HEp-2 cells following methods described previously (Wen Z. et al.; 2019).
Calu-1 cells were purchased from ATCC (Cat #HTB-54) and were expanded in growth media (DMEM containing 10% FBS, 100 U/ml Penicillin-Streptomycin). To make ARF, cell culture media was removed and discarded and the cell layer was briefly rinsed with PBS to remove serum. 2.5 mL of TrypLE Express solution were added and cells incubated until dislodged, to which growth media was added and the cells were resuspended by gentle pipetting. Cells were counted for concentration and viability as determined by ViCell. Cells were centrifuged at RT, 300 g for 5 minutes to pellet cells. The supernatant was gently aspirated and the pellet was flicked to loosen cells. Cells were resuspended in an appropriate volume of freezing medium (DMEM containing 10% DMSO, 10% FBS, 100 U/ml Penicillin-Streptomycin) to achieve a concentration of 5×10^6 cells/mL. 1 mL aliquots of the cell suspension were transferred to freezing vials. The vials were put into an upright container in a −80° C. freezer overnight before transferring vials to liquid nitrogen for storage.
Assay ready freezedown (ARF, generation described separately) Calu-1 cells (ATCC HTB-54) were used. Compound plates were prepared by dispensing compounds dissolved in DMSO into the wells of a 384 well Corning® 3985 plate with an ECHO acoustic dispenser and compounds were tested in 10-point serial 3-fold dilution. […] To set up the assay, ARF vial(s) were thawed in a 37° C. water bath and were then resuspended into assay media (DMEM containing 2% FBS, 100 U/ml Penicillin-Streptomycin). Cells were counted using default parameters on ViCell and diluted to 20,000 cells/mL in assay media. RSV-A2-GFP virus was added to cells at 24,000 pfu/ml (MOI=1.2) and mixed by gentle inversion. 10 μL/well of 100% DMSO was dispensed as CellTiter-Glo (CTG) assay Max_E controls wells. The cells were dispensed at 50 μL/well using Bravo with 50 μL filtered tips into compound plates. Plates were covered with MicroClime lids, loaded with 7.5 mL of assay media to minimize evaporation, and were incubated at 37° C. and 5% CO2 for 96 hrs. Following incubation, distinct, GFP-expressing cells were counted using an Acumen imaging system with appropriate settings. A same-well CTG assay was performed by adding 10 μL/well reconstituted CellTiter-Glo reagent (Promega G7573) and plates were read on PerkinElmer Envision according to manufacturer's instructions. Raw data were loaded and analyzed in ActivityBase. Antiviral IC50 and cytotoxicity CC50 values were determined using a 4 parameter logistic fit based on the Levenberg-Marquardt algorithm. Model: 205-4 Parameter Logistic.

[1] = VERO cells infected with hMPV-GFP, 48 hrs, GFP-expressing cells counted, read-out: hMPV EC50
[2] = Calu-1 cells infected with RSV-A2-GFP, 96 hrs, GFP-expressing cells counted, read-out: RSV EC50
[3] = human metapneumovirus, Vero, 48 h, read-out: hMPV EC50, VERO cells infected with hMPV-GFP, 48 hrs, GFP-expressing cells counted
[4] = human respiratory syncytial virus, Calu-1, 96 h, read-out: RSV EC50, Calu-1 cells infected with RSV-A2-GFP, 96 hrs, GFP-expressing cells counted
[5] = read-out: RSV EC50, Calu-1 cells infected with RSV-A2-GFP, 96 hrs, GFP-expressing cells counted

Compound | EC50 (hMPV-GFP virus; [1]) [nM] | EC50 (RSV-A2-GFP virus; [2]) [nM] | EC50 (hMPV-GFP virus; [3]) [nM] | EC50 (RSV-A2-GFP virus; [4]) [nM] | other results
Cc1nc(-c2ncccn2)sc1C(=O)N1C[C@@H]2[C@H](C1)[C@H]2Oc1cc(C(C)(C)N)cc(-c2ccc(F)c3ccccc23)n1 [Example 42, ((1R,5S,6s)-6-((4-(2-aminopropan-2-yl)-6-(4-fluoronaphthalen-1-yl)pyridin-2-yl)oxy)-3-azabicyclo[3.1.0]hexan-3-yl)(4-methyl-2-(pyrimidin-2-yl)thiazol-5-yl)methanone] | 10 to 100 | < 10 | – | – | –
Cn1nc(-c2cccc(F)n2)cc1C(=O)N1C[C@@H]2[C@H](C1)[C@H]2Oc1cc(C(C)(C)N)cc(-c2ccc(F)cc2)n1 [Example 50, ((1R,5S,6s)-6-((4-(2-aminopropan-2-yl)-6-(4-fluorophenyl)pyridin-2-yl)oxy)-3-azabicyclo[3.1.0]hexan-3-yl)(3-(6-fluoropyridin-2-yl)-1-methyl-1H-pyrazol-5-yl)methanone] | – | – | 10 to 100 | < 10 | –
Cc1nc(-c2ncccn2)sc1C(=O)N1C[C@@H]2[C@H](C1)[C@H]2Oc1cc(C(C)(C)N)cc(-c2ccc(F)cc2)n1 [Example 8, ((1R,5S,6s)-6-((4-(2-aminopropan-2-yl)-6-(4-fluorophenyl)pyridin-2-yl)oxy)-3-azabicyclo[3.1.0]hexan-3-yl)(4-methyl-2-(pyrimidin-2-yl)thiazol-5-yl)methanone] | – | – | 10 to 100 | < 10 | –
Cn1nc(-c2ncccn2)c(Cl)c1C(=O)N1C[C@@H]2[C@H](C1)[C@H]2Oc1cc(C(C)(C)N)cc(-c2ccc(F)cc2)n1 [Example 53, ((1R,5S,6s)-6-((4-(2-aminopropan-2-yl)-6-(4-fluorophenyl)pyridin-2-yl)oxy)-3-azabicyclo[3.1.0]hexan-3-yl)(4-chloro-1-methyl-3-(pyrimidin-2-yl)-1H-pyrazol-5-yl)methanone] | – | – | > 100 | < 10 | –
Cc1nc(-c2ncccn2)sc1C(=O)N1C[C@@H]2[C@H]1C[C@H]2Oc1cc(C(C)(C)N)cc(-c2ccc(F)cc2)n1 (single isomer, unassigned) [Example 1A] | – | – | > 100 | – | EC50 (RSV-A2-GFP virus; [5]): > 100 nM
Cc1nn(-c2ncccn2)cc1C(=O)N1C[C@@H]2[C@H](C1)[C@H]2Oc1cc(C(C)(C)N)cc(-c2ccc(Cl)c(F)c2)n1 [Example 84, ((1R,5S,6s)-6-((4-(2-aminopropan-2-yl)-6-(4-chloro-3-fluorophenyl)pyridin-2-yl)oxy)-3-azabicyclo[3.1.0]hexan-3-yl)(3-methyl-1-(pyrimidin-2-yl)-1H-pyrazol-4-yl)methanone] | > 100 | < 10 | – | – | –
Cc1nc(-c2ncccn2)sc1C(=O)N1C[C@@H]2[C@H]1C[C@H]2Oc1cc(C(C)(C)N)cc(-c2ccc(F)cc2)n1 (single isomer, unassigned) [Example 1B] | – | – | – | – | EC50 (hMPV-GFP virus; read-out: hMPV EC50, VERO cells infected with hMPV-GFP, 48 hrs, GFP-expressing cells counted): > 100 nM; EC50 (RSV-A2-GFP virus; [5]): < 10 nM
Cc1ccnc(-n2cc(C(=O)N3C[C@@H]4[C@H](C3)[C@H]4Oc3cc(C(C)(C)N)cc(-c4ccc(F)cc4)n3)c(C)n2)n1 [Example 72, ((1R,5S,6s)-6-((4-(2-aminopropan-2-yl)-6-(4-fluorophenyl)pyridin-2-yl)oxy)-3-azabicyclo[3.1.0]hexan-3-yl)(3-methyl-1-(4-methylpyrimidin-2-yl)-1H-pyrazol-4-yl)methanone] | > 100 | < 10 | – | – | –
Cc1nn(-c2ncccn2)cc1C(=O)N1C[C@@H]2[C@H](C1)[C@H]2Oc1cc(C(C)(C)N)cc(-c2ccc(F)c(F)c2)n1 [Example 80, ((1R,5S,6s)-6-((4-(2-aminopropan-2-yl)-6-(3,4-difluorophenyl)pyridin-2-yl)oxy)-3-azabicyclo[3.1.0]hexan-3-yl)(3-methyl-1-(pyrimidin-2-yl)-1H-pyrazol-4-yl)methanone] | – | – | 10 to 100 | < 10 | –
Cc1nc(-c2ccccn2)sc1C(=O)N1C[C@@H]2[C@H](C1)[C@H]2Oc1cc(C(C)(C)N)cc(-c2ccc(F)cc2)n1 [Example 12, ((1R,5S,6s)-6-((4-(2-aminopropan-2-yl)-6-(4-fluorophenyl)pyridin-2-yl)oxy)-3-azabicyclo[3.1.0]hexan-3-yl)(4-methyl-2-(pyridin-2-yl)thiazol-5-yl)methanone] | > 100 | < 10 | – | – | –
Cc1nn(-c2ncccn2)c(C)c1C(=O)N1C[C@@H]2[C@H](C1)[C@H]2Oc1cc(C(C)(C)N)cc(-c2ccc(F)cc2)n1 [Example 73, ((1R,5S,6s)-6-((4-(2-aminopropan-2-yl)-6-(4-fluorophenyl)pyridin-2-yl)oxy)-3-azabicyclo[3.1.0]hexan-3-yl)(3,5-dimethyl-1-(pyrimidin-2-yl)-1H-pyrazol-4-yl)methanone] | > 100 | < 10 | – | – | –
Cc1nn(-c2ncccn2)cc1C(=O)N1C[C@H]2[C@H](Oc3cc(C(C)(C)N)cc(-c4ccc(F)cc4)n3)[C@@]2(C)C1 (single isomer, unassigned; enantiomer 1) [Example 107A] | – | – | > 100 | < 10 | –
